Literature values as cited in patent US20230381101A1, “AQUEOUS PHARMACEUTICAL COMPOSITIONS COMPRISING SGLT-2 INHIBITORS” (Boehringer Ingelheim Vetmedica GmbH, priority 2022, published 2023).

Conditions: n-octanol/water; values taken from http://www.chemicalize.org/

| log10P | SMILES |
| --- | --- |
| −1.84 | OCC(O)CO [propane-1,2,3-triol] |
| −0.16 | CCO [ethanol] |

| SMILES | log10P |
| --- | --- |
| CC(=O)N(C)C [N,N-dimethylacetamide] | −0.583 |
